Source: patent US6310091A, “Fungicidal saponin, CAY-1, and isolation thereof from Capsium species fruit” (The United States of America as represented by the …, priority 2000, dated 2001)
“And” between values parts separate entries of the source, which are not always exact repeats. Identical values can stand only once. Like-named read-outs stand apart in the source and are kept apart here.

Tests used:
Aspergillus fumigatus = test: Fungicidal bioassay on nongerminated and germinating conidia of A. fumigatus; assay type: cell-based; conditions: for activity at 2 µM / activity at 3 µM / activity at 4 µM / activity at 5 µM / activity at 7.5 µM / activity at 10 µM / activity at 0.5 µM / activity at 1 µM / activity at 1.5 µM / activity at 2.5 µM: read-out: Percent of Mean Control
Experimental: (§1) 1. Filamentous fungi. Filamentous fungi used in bioassays included Aspergillus flavus, A. fumigatus, A. niger, A. parasiticus and Fusarium oxysporum. The fungicidal properties of CAY-1 for the nongerminated and germinating conidia of these fungi were determined separately as described by De Lucca et al. [Med. Mycol., 36:291-298 (1998)] and De Lucca et al. [Antimicrob. Agents Chemother. 43:371-373 (1999)]. […] Two separate experiments were conducted in each medium (n=8 per medium).
(§2) A suspension of the aforementioned fungi were prepared separately in the appropriate medium. Conidia (10^4 conidia/ml) were used immediately for the nongerminated conidial assays while conidia (10^5 conidia/ml) were incubated for 7.5 hours at 30° C. to obtain germinating conidia. Serial dilutions of CAY-1 were prepared in the appropriate medium (totaling 225 μl) to which was added 25 μl of the conidial suspensions. The control consisted of 225 μl of medium and 25 μl of the conidial suspension. After mixing, the samples were incubated for 30 min (30° C.). Samples were then spread on potato dextrose agar plates which were incubated at 30° C. for 24 hours. Colonies were then enumerated.
(§3) Statistical analyses. ANOVA analyses on ranks for nonparametric data were performed for the bioassays described in this example.

Aspergillus flavus = test: Time course study against germinating conidia of A. flavus; assay type: cell-based; conditions: 1% PDB
Experimental: as §1, §2
4. Time course study. The effect of time and concentration on the activity of CAY-1 was determined against the germinating conidia of A. flavus in 1% (w/v) PBD. Bioassays were performed twice as described above (n=8).
as §3

[1] = Aspergillus fumigatus, 0.5 h, read-out: LD95

Compound: CC1CCC2(OC1)OC1CC3C4CCC5CC(OC6OC(CO)C(OC7OC(CO)C(O)C(OC8OC(CO)C(O)C(OC9OC(CO)C(O)C(O)C9O)C8O)C7OC7OC(CO)C(O)C(O)C7O)C(O)C6O)C(O)CC5(C)C4CCC3(C)C1C2C (centres unmarked) [CAY-1]
- activity at 2 µM (Aspergillus fumigatus; Aspergillus fumigatus, 0.5 h, germinating, 1% PDB, 2.0 μM): 96.1%
- activity at 3 µM (Aspergillus fumigatus; Aspergillus fumigatus, 0.5 h, germinating, 1% PDB, 3.0 μM): 49.9%
- activity at 4 µM (Aspergillus fumigatus; Aspergillus fumigatus, 0.5 h, germinating, 1% PDB, 4.0 μM): 14.4%
- activity at 5 µM (Aspergillus fumigatus; Aspergillus fumigatus, 0.5 h, germinating, 1% PDB, 5.0 μM): 6.1%
- activity at 7.5 µM (Aspergillus fumigatus; Aspergillus fumigatus, 0.5 h, germinating, 1% PDB, 7.5 μM): 2.8%
- activity at 10 µM (Aspergillus fumigatus; Aspergillus fumigatus, 0.5 h, germinating, 1% PDB, 10.0 μM): 0.2%
- activity at 0.5 µM (Aspergillus fumigatus; Aspergillus fumigatus, 0.5 h, germinating, RPMI-1640, 0.5 μM): 92.4%
- activity at 1 µM (Aspergillus fumigatus; Aspergillus fumigatus, 0.5 h, germinating, RPMI-1640, 1.0 μM): 105%
- activity at 1.5 µM (Aspergillus fumigatus; Aspergillus fumigatus, 0.5 h, germinating, RPMI-1640, 1.5 μM): 117%
- activity at 2 µM (Aspergillus fumigatus; Aspergillus fumigatus, 0.5 h, germinating, RPMI-1640, 2.0 μM): 118%
- activity at 2.5 µM (Aspergillus fumigatus; Aspergillus fumigatus, 0.5 h, germinating, RPMI-1640, 2.5 μM): 114%
- activity at 3 µM (Aspergillus fumigatus; Aspergillus fumigatus, 0.5 h, germinating, RPMI-1640, 3.0 μM): 40.7%
- activity at 4 µM (Aspergillus fumigatus; Aspergillus fumigatus, 0.5 h, germinating, RPMI-1640, 4.0 μM): 5.1%
- activity at 2 µM (Aspergillus fumigatus; Aspergillus fumigatus, 0.5 h, nongerminated, 1% PDB, 2.0 μM): 93.9%
- activity at 3 µM (Aspergillus fumigatus; Aspergillus fumigatus, 0.5 h, nongerminated, 1% PDB, 3.0 μM): 80.4%
- activity at 4 µM (Aspergillus fumigatus; Aspergillus fumigatus, 0.5 h, nongerminated, 1% PDB, 4.0 μM): 88.5%
- activity at 5 µM (Aspergillus fumigatus; Aspergillus fumigatus, 0.5 h, nongerminated, 1% PDB, 5.0 μM): 86.7%
- activity at 7.5 µM (Aspergillus fumigatus; Aspergillus fumigatus, 0.5 h, nongerminated, 1% PDB, 7.5 μM): 96.6%
- activity at 10 µM (Aspergillus fumigatus; Aspergillus fumigatus, 0.5 h, nongerminated, 1% PDB, 10.0 μM): 101%
- activity at 0.5 µM (Aspergillus fumigatus; Aspergillus fumigatus, 0.5 h, nongerminated, RPMI-1640, 0.5 μM): 117%
- activity at 1 µM (Aspergillus fumigatus; Aspergillus fumigatus, 0.5 h, nongerminated, RPMI-1640, 1.0 μM): 132%
- activity at 1.5 µM (Aspergillus fumigatus; Aspergillus fumigatus, 0.5 h, nongerminated, RPMI-1640, 1.5 μM): 97.4%
- activity at 2 µM (Aspergillus fumigatus; Aspergillus fumigatus, 0.5 h, nongerminated, RPMI-1640, 2.0 μM): 109%
- activity at 2.5 µM (Aspergillus fumigatus; Aspergillus fumigatus, 0.5 h, nongerminated, RPMI-1640, 2.5 μM): 96.5%
- activity at 3 µM (Aspergillus fumigatus; Aspergillus fumigatus, 0.5 h, nongerminated, RPMI-1640, 3.0 μM): 103%
- LD95 (concentration killing 95% of conidia) (Aspergillus fumigatus; [1]): 4 µM
- LD95 (concentration lethal to 95% of conidia) (Aspergillus fumigatus; [1]): 5 µg/mL
- minimal effective concentration (Aspergillus fumigatus; Aspergillus fumigatus, 0.5 h, read-out: concentration achieving significant lethality): 3 µM and 3.7 µg/mL
- minimal effective concentration (Aspergillus fumigatus; Aspergillus fumigatus, 0.5 h, read-out: concentration required for statistically significant viability reduction): 12.4 µg/mL
- minimal effective concentration (Aspergillus fumigatus; Aspergillus fumigatus, 0.5 h, germinating conidia, RPMI-1640, p=0.0002, read-out: concentration required for statistically significant viability reduction): 10 µM
- Mean No. of Colonies (Aspergillus fumigatus; germinating, 1% PDB, 2.0 μM): 44.1
- Mean No. of Colonies (Aspergillus fumigatus; germinating, 1% PDB, 3.0 μM): 22.9
- Mean No. of Colonies (Aspergillus fumigatus; germinating, 1% PDB, 4.0 μM): 6.6
- Mean No. of Colonies (Aspergillus fumigatus; germinating, 1% PDB, 5.0 μM): 2.8
- Mean No. of Colonies (Aspergillus fumigatus; germinating, 1% PDB, 7.5 μM): 1.3
- Mean No. of Colonies (Aspergillus fumigatus; germinating, 1% PDB, 10.0 μM): 0.1
- Mean No. of Colonies (Aspergillus fumigatus; germinating, RPMI-1640, 0.5 μM): 10.9
- Mean No. of Colonies (Aspergillus fumigatus; germinating, RPMI-1640, 1.0 μM): 12.4
- Mean No. of Colonies (Aspergillus fumigatus; germinating, RPMI-1640, 1.5 μM): 13.8
- Mean No. of Colonies (Aspergillus fumigatus; germinating, RPMI-1640, 2.0 μM): 13.9
- Mean No. of Colonies (Aspergillus fumigatus; germinating, RPMI-1640, 2.5 μM): 13.5
- Mean No. of Colonies (Aspergillus fumigatus; germinating, RPMI-1640, 3.0 μM): 4.8
- Mean No. of Colonies (Aspergillus fumigatus; germinating, RPMI-1640, 4.0 μM): 0.6
- viability of nongerminated conidia (Aspergillus fumigatus; nongerminated conidia, either test medium): not affected
- Mean No. of Colonies (Aspergillus fumigatus; nongerminated, 1% PDB, 2.0 μM): 57.4
- Mean No. of Colonies (Aspergillus fumigatus; nongerminated, 1% PDB, 3.0 μM): 49.1
- Mean No. of Colonies (Aspergillus fumigatus; nongerminated, 1% PDB, 4.0 μM): 54.1
- Mean No. of Colonies (Aspergillus fumigatus; nongerminated, 1% PDB, 5.0 μM): 53.0
- Mean No. of Colonies (Aspergillus fumigatus; nongerminated, 1% PDB, 7.5 μM): 59.0
- Mean No. of Colonies (Aspergillus fumigatus; nongerminated, 1% PDB, 10.0 μM): 61.8
- Mean No. of Colonies (Aspergillus fumigatus; nongerminated, RPMI-1640, 0.5 μM): 27.0
- Mean No. of Colonies (Aspergillus fumigatus; nongerminated, RPMI-1640, 1.0 μM): 30.6
- Mean No. of Colonies (Aspergillus fumigatus; nongerminated, RPMI-1640, 1.5 μM): 22.5
- Mean No. of Colonies (Aspergillus fumigatus; nongerminated, RPMI-1640, 2.0 μM): 25.1
- Mean No. of Colonies (Aspergillus fumigatus; nongerminated, RPMI-1640, 2.5 μM): 22.3
- Mean No. of Colonies (Aspergillus fumigatus; nongerminated, RPMI-1640, 3.0 μM): 23.8
- Mean No. of Colonies (Aspergillus flavus; 2.5 min, 2.0 μM): 184.4
- Mean No. of Colonies (Aspergillus flavus; 2.5 min, 3.0 μM): 174.3
- Mean No. of Colonies (Aspergillus flavus; 2.5 min, 4.0 μM): 170.5
- Mean No. of Colonies (Aspergillus flavus; 2.5 min, 5.0 μM): 170.0
- Mean No. of Colonies (Aspergillus flavus; 2.5 min, 7.5 μM): 160.8
- Mean No. of Colonies (Aspergillus flavus; 2.5 min, 10.0 μM): 154.8
- Mean No. of Colonies (Aspergillus flavus; 5.0 min, 2.0 μM): 182.3
- Mean No. of Colonies (Aspergillus flavus; 5.0 min, 3.0 μM): 190.1
- Mean No. of Colonies (Aspergillus flavus; 5.0 min, 4.0 μM): 171.3
